# In ChEMBL document CHEMBL3885861, “Open TG-GATES”:
# Organism: Rattus norvegicus
# Experiment: Open TG-GATES - Regimen: Single
# Type: toxicity, organism-based, Sprague-Dawley
# Design: regimen Single, gender Male, age 6 weeks
# Details: in vivo, po, 1000 mg/kg, route gavage, dose level High; for APTT / Bas / Eos / Fbg / Hb / Ht / Lym / MCH / MCHC / MCV / Mono / Neu / PT / Plat / RBC / Ret / WBC: tissue Blood; for KIDNEY_L / KIDNEY_R / KIDNEY_TOTAL: tissue Kidney; for LIVER: tissue Liver; for A/G / ALP / ALT / AST / BUN / CRE / Ca / Cl / DBIL / GLC / IP / K / LDH / Na / PL / RALB / TBIL / TC / TG / TP / gamma-GTP: tissue Plasma
smiles,measurement,setting,value
O=C(OC[C@H]1O[C@@H](OC(=O)c2cc(O)c(O)c(OC(=O)c3cc(O)c(O)c(O)c3)c2)[C@H](OC(=O)c2cc(O)c(O)c(OC(=O)c3cc(O)c(O)c(O)c3)c2)[C@@H](OC(=O)c2cc(O)c(O)c(OC(=O)c3cc(O)c(O)c(O)c3)c2)[C@@H]1OC(=O)c1cc(O)c(O)c(OC(=O)c2cc(O)c(O)c(O)c2)c1)c1cc(O)c(O)c(OC(=O)c2cc(O)c(O)c(O)c2)c1 [TANNIC ACID],TERMINAL_BW,3 h,189.4 g
same,APTT,3 h,17.2 s
same,Bas,3 h,0%
same,Eos,3 h,1%
same,Fbg,3 h,221.2 mg/dL
same,Hb,3 h,13 g/dL
same,Ht,3 h,38.9%
same,Lym,3 h,81.6%
same,MCH,3 h,21.7 pg
same,MCHC,3 h,33.3%
same,MCV,3 h,65.1 fL
same,Mono,3 h,4.8%
same,Neu,3 h,12.8%
same,PT,3 h,11.9 s
same,Plat,3 h,110.6 x10_4/uL
same,RBC,3 h,597.4 x10_4/ul
same,Ret,3 h,10.3%
same,WBC,3 h,104.1 x10_2/uL
same,KIDNEY_L,3 h,0.9 g
same,KIDNEY_R,3 h,0.9 g
same,KIDNEY_TOTAL,3 h,1.8 g
same,LIVER,3 h,8.5 g
same,A/G,3 h,2
same,ALP,3 h,805 IU/L
same,ALT,3 h,39.6 IU/L
same,AST,3 h,69.6 IU/L
same,BUN,3 h,12.2 mg/dL
same,CRE,3 h,0.4 mg/dL
same,Ca,3 h,10.8 mg/dL
same,Cl,3 h,104.6 meq/L
same,DBIL,3 h,0.016 mg/dL
same,GLC,3 h,191.4 mg/dL
same,IP,3 h,10.2 mg/dL
same,K,3 h,4.9 meq/L
same,LDH,3 h,101.8 IU/L
same,Na,3 h,138.2 meq/L
same,PL,3 h,128.2 mg/dL
same,RALB,3 h,3.7 g/dL
same,TBIL,3 h,0.5 mg/dL
same,TC,3 h,72.8 mg/dL
same,TG,3 h,35.8 mg/dL
same,TP,3 h,5.5 g/dL
same,gamma-GTP,3 h,1.2 IU/L
same,TERMINAL_BW,6 h,183.9 g
same,APTT,6 h,16.7 s
same,Bas,6 h,0%
same,Eos,6 h,1%
same,Fbg,6 h,211 mg/dL
same,Hb,6 h,13.5 g/dL
same,Ht,6 h,40.6%
same,Lym,6 h,76.2%
same,MCH,6 h,22 pg
same,MCHC,6 h,33.3%
same,MCV,6 h,66.1 fL
same,Mono,6 h,7%
same,Neu,6 h,16.2%
same,PT,6 h,12 s
same,Plat,6 h,115.1 x10_4/uL
same,RBC,6 h,613.8 x10_4/ul
same,Ret,6 h,9.7%
same,WBC,6 h,101 x10_2/uL
same,KIDNEY_L,6 h,0.9 g
same,KIDNEY_R,6 h,0.9 g
same,KIDNEY_TOTAL,6 h,1.8 g
same,LIVER,6 h,7.5 g
same,A/G,6 h,1.8
same,ALP,6 h,682.8 IU/L
same,ALT,6 h,41.4 IU/L
same,AST,6 h,68.8 IU/L
same,BUN,6 h,11.4 mg/dL
same,CRE,6 h,0.4 mg/dL
same,Ca,6 h,10.6 mg/dL
same,Cl,6 h,105.8 meq/L
same,DBIL,6 h,0.008 mg/dL
same,GLC,6 h,183.4 mg/dL
same,IP,6 h,11 mg/dL
same,K,6 h,5 meq/L
same,LDH,6 h,81.4 IU/L
same,Na,6 h,138.8 meq/L
same,PL,6 h,113.6 mg/dL
same,RALB,6 h,3.4 g/dL
same,TBIL,6 h,0.7 mg/dL
same,TC,6 h,65.2 mg/dL
same,TG,6 h,22.2 mg/dL
same,TP,6 h,5.3 g/dL
same,gamma-GTP,6 h,1.2 IU/L
same,TERMINAL_BW,9 h,185.5 g
same,APTT,9 h,16.9 s
same,Bas,9 h,0%
same,Eos,9 h,1%
same,Fbg,9 h,221 mg/dL
same,Hb,9 h,13.1 g/dL
same,Ht,9 h,39.1%
same,Lym,9 h,73%
same,MCH,9 h,22.3 pg
same,MCHC,9 h,33.6%
same,MCV,9 h,66.5 fL
same,Mono,9 h,8%
same,Neu,9 h,18.4%
same,PT,9 h,12.3 s
same,Plat,9 h,119.4 x10_4/uL
same,RBC,9 h,589.2 x10_4/ul
same,Ret,9 h,9.2%
same,WBC,9 h,87.8 x10_2/uL
same,KIDNEY_L,9 h,0.9 g
same,KIDNEY_R,9 h,0.8 g
same,KIDNEY_TOTAL,9 h,1.7 g
same,LIVER,9 h,7.1 g
same,A/G,9 h,2.3
same,ALP,9 h,772.8 IU/L
same,ALT,9 h,42.4 IU/L
same,AST,9 h,68.8 IU/L
same,BUN,9 h,12.2 mg/dL
same,CRE,9 h,0.4 mg/dL
same,Ca,9 h,10.2 mg/dL
same,Cl,9 h,106.8 meq/L
same,DBIL,9 h,0.08 mg/dL
same,GLC,9 h,193 mg/dL
same,IP,9 h,10.8 mg/dL
same,K,9 h,5 meq/L
same,LDH,9 h,69 IU/L
same,Na,9 h,137 meq/L
same,PL,9 h,113.8 mg/dL
same,RALB,9 h,3.7 g/dL
same,TBIL,9 h,0.9 mg/dL
same,TC,9 h,61.6 mg/dL
same,TG,9 h,16 mg/dL
same,TP,9 h,5.4 g/dL
same,gamma-GTP,9 h,2 IU/L
same,TERMINAL_BW,24 h,198.6 g
same,APTT,24 h,17.8 s
same,Bas,24 h,0%
same,Eos,24 h,1%
same,Fbg,24 h,221.4 mg/dL
same,Hb,24 h,12.6 g/dL
same,Ht,24 h,38.2%
same,Lym,24 h,75.2%
same,MCH,24 h,21.5 pg
same,MCHC,24 h,33.1%
same,MCV,24 h,64.8 fL
same,Mono,24 h,9.2%
same,Neu,24 h,15%
same,PT,24 h,11.8 s
same,Plat,24 h,104.8 x10_4/uL
same,RBC,24 h,588.8 x10_4/ul
same,Ret,24 h,9.3%
same,WBC,24 h,91 x10_2/uL
same,KIDNEY_L,24 h,0.9 g
same,KIDNEY_R,24 h,0.9 g
same,KIDNEY_TOTAL,24 h,1.7 g
same,LIVER,24 h,9.2 g
same,A/G,24 h,1.9
same,ALP,24 h,893.8 IU/L
same,ALT,24 h,36.4 IU/L
same,AST,24 h,62.4 IU/L
same,BUN,24 h,18 mg/dL
same,CRE,24 h,0.5 mg/dL
same,Ca,24 h,10.8 mg/dL
same,Cl,24 h,104.2 meq/L
same,DBIL,24 h,0 mg/dL
same,GLC,24 h,184 mg/dL
same,IP,24 h,7.8 mg/dL
same,K,24 h,4.6 meq/L
same,LDH,24 h,110.8 IU/L
same,Na,24 h,138.6 meq/L
same,PL,24 h,133.4 mg/dL
same,RALB,24 h,3.5 g/dL
same,TBIL,24 h,0.3 mg/dL
same,TC,24 h,72.2 mg/dL
same,TG,24 h,79.6 mg/dL
same,TP,24 h,5.4 g/dL
same,gamma-GTP,24 h,0.8 IU/L
